Test results published in patent US8796299B2, “NK1 antagonists” (OPKO Health, Inc., priority 2001, dated 2014).

Each compound was assayed against NK1 receptor (Homo sapiens, UniProt P25103) (assay: NK1 receptor binding: inhibition of Substance P binding, Ki from the 50% inhibition concentration). Settings: average Ki for the NK1 receptor.
From the text: Compounds having the formula (I) can be effective antagonists of the NK1 receptor, and of an effect of its endogenous agonist, Substance P, at the NK1 receptor site, and therefore, can be useful in treating conditions caused or aggravated by the activity of said receptor. The in vitro and in vivo NK1, NK2 and NK3 activities of the compounds having the formula (I) can be determined by various procedures known in the art, such as a test for their ability to inhibit the activity of the NK1 agonist Substance P. The percent inhibition of neurokinin agonist activity is the difference between the percent of maximum specific binding (“MSB”) and 100%. The percent of MSB is defined by the following equation, wherein “dpm” represents “disintegrations per minute”:
[formula] The concentration at which the compound produces 50% inhibition of binding is then used to determine an inhibition constant (“Ki”) using the Chang-Prusoff equation.
The activities (potencies) for the compounds of the invention are determined by measuring their Ki values. […] Even more preferred are compounds having average Ki values of from 0.01 nM to about 10 nM for the NK1 receptor. The most preferred compounds have NK1 average Ki values of from 0.01 nM to about 3 nM.

NK1 receptor, sequence (P25103 whole entry, species assumed): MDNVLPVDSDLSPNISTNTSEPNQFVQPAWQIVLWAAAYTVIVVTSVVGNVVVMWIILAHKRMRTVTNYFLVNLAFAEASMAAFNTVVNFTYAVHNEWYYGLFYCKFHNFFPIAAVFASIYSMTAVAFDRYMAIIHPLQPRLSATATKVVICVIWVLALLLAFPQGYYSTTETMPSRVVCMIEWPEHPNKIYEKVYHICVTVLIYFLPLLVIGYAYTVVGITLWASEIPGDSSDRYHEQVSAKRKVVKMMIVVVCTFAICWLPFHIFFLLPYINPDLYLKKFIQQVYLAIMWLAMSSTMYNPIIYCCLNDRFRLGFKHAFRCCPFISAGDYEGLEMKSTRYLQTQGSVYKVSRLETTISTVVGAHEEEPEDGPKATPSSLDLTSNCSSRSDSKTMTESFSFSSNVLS

`C[C@@H](OC[C@@]1(c2ccccc2)CC[C@]2(CN1)NC(=O)NC2=O)c1cc(C(F)(F)F)cc(C(F)(F)F)c1` [Example 43b] and `C[C@@H](OC[C@@]1(c2ccccc2)CC[C@]2(CCC(=O)N2)CN1)c1cc(C(F)(F)F)cc(C(F)(F)F)c1` [Example 72a] are within 1.5-fold of each other in Ki: 0.77 nM for the first, 0.66 nM for the second.

First: C[C@@H](OC[C@@]1(c2ccccc2)CC[C@@]2(CN1)COC(=O)N2)c1cc(C(F)(F)F)cc(C(F)(F)F)c1 [Example 73b]
Second: C[C@@H](OC[C@@]1(c2ccccc2)CC[C@]2(CCOC(=O)N2)CN1)c1cc(C(F)(F)F)cc(C(F)(F)F)c1 [Example 111a]
The Ki of the first is 1.9-fold lower: 0.2 nM for the first, 0.38 nM for the second. The first binds more tightly here.

Going from `C[C@@H](OC[C@@]1(c2ccccc2)CC[C@H](n2cn[nH]c2=O)CN1)c1cc(C(F)(F)F)cc(C(F)(F)F)c1` [Example 109] to `C[C@@H](OC[C@@]1(c2ccccc2)CC[C@]2(CCCC(=O)N2)CN1)c1cc(C(F)(F)F)cc(C(F)(F)F)c1` [Example 110a], the Ki rises from 0.1 nM to 0.41 nM (4.1-fold).
